Measurements from paper PMC12582325 (Proceedings of the National Academy of Sciences of the …, 2025).
“And” between values parts separate entries of the source, which are not always exact repeats. Equal entries are not always repeated. “Also recorded” adds a separate entry of the source. Where two headings read alike, the source gives them in different places. Where a SMILES comes first, the peptide text is derived from it.

What was measured:
Bc.Ste2 [1] = type: cell-based, Botrytis cinerea
Bb.Ste2 = type: cell-based, Beauveria bassiana
Hj Ste2 GPCR (Hj.Hpr2) = type: cell-based, Hypocrea jecorina
Bc.Ste2 [2] = type: cell-based, Botrytis cinerea; details: YPL1 library cocultured with Bc.Ste2 strain GEN89, 20 h, 2 d diploid enrichment, NextSeq 500
Fo.Ste2 [3] = assay: YeMaP Library-on-One: YPL1 pheromone library enrichment by mating, NGS; type: cell-based, Fusarium oxysporum; details: YPL1 library cocultured with Fo.Ste2 strain GEN90, 20 h, 2 d diploid enrichment, NextSeq 500
F. oxysporum germ tubes = details: gradient of 400 μM pheromone against the solvent (50% methanol); 13 h; water-agar; three biological replicates; Fig. 5A
Description: For the B. bassiana and F. oxysporum chemotropism assay and plant infection assays the pheromones were dissolved in 50% (v/v) MeOH to reach a concentration of 4,000 μM.
Fungal chemotropism was conducted as previously described ([11]). For each compound or combination of compounds tested, 300 hyphal tips were scored. All experiments were performed in three biological replicates.

Fo.Ste2 [4] = type: cell-based, Fusarium oxysporum
Fg.Ste2 [5] = type: cell-based, Fusarium graminearum; details: YPL1 library cocultured with Fg.Ste2 strain GEN87, 20 h, 2 d diploid enrichment, NextSeq 500
Sc Ste2 = biological target: T1, Sc Ste2 (Saccharomyces cerevisiae, UniProt D6VTK4); type: cell-based
T1 construct: The native Sc system and an empty construct were added as positive and negative controls; endogenous in cells; host or cells: Saccharomyces cerevisiae wild-type control strains GEN18 (MATa) and GEN27 (MATα)
T1 sequence (D6VTK4 1-431): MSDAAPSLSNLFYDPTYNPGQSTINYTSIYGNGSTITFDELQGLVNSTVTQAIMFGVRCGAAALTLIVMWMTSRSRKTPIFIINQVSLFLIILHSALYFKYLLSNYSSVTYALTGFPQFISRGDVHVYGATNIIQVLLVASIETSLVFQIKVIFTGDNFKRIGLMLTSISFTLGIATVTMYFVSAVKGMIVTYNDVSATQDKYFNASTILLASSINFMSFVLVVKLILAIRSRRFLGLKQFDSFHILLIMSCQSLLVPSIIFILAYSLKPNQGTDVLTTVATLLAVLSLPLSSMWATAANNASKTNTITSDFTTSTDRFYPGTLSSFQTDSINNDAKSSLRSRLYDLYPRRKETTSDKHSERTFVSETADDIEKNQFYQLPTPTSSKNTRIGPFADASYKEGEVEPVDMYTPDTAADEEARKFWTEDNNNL

Ca.Ste2 = type: cell-based, Candida albicans
Nc Ste2 GPCR = type: cell-based, Neurospora crassa
Fo.Ste2 [6] = type: cell-based, Fusarium oxysporum; remark: listed apart in the source
Fg.Ste2 [7] = details: for barcode qPCR of diploids, Fg.Ste2 x pheromone strain: consortium, individual replicates (n=3), listed as Fo.Pheromone
Fg.Ste2 [8] = type: cell-based, Fusarium graminearum

## C[C@@H](O)[C@H](NC(=O)[C@H](CS)NC(=O)[C@@H](N)Cc1c[nH]c2ccccc12)C(=O)N[C@@H](Cc1c[nH]c2ccccc12)C(=O)N[C@@H](CCCNC(=N)N)C(=O)NCC(=O)N[C@@H](CCC(N)=O)C(=O)N1CCC[C@H]1C(=O)N[C@@H](CS)C(=O)N[C@@H](Cc1c[nH]c2ccccc12)C(=O)O [Fo] (H-WCTWRGQPCW-OH; N-terminus assumed)
Bc.Ste2 [1]; 0.0005 μM Bc pheromone in combination with 10 μM peptide, four biological replicates, Fig. 2G
  Effect on activation of Bc.Ste2 by Bc pheromone, in words: do not differ significantly from Bc alone; also recorded: no such effect
Bc.Ste2 [1]; Bc + the named peptide, Bc alone mean 134.8, mean of n = 4
  Bc.Ste2 + pheromones, biosensor response, group mean: 104.9
Bb.Ste2
  diploid barcode qPCR signal relative to control (2^-dCt): 0
Hj Ste2 GPCR (Hj.Hpr2)
  Diploid frequency (%): 0.0%
Bc.Ste2 [2]
  Enrichment after mating, reads per million minus library before coculture: > 340,000 RPM
Fo.Ste2 [3]
  Enrichment after mating, reads per million minus library before coculture: > 340,000 RPM
F. oxysporum germ tubes
  Chemotropic response in F. oxysporum germ tubes: significant chemotropic response
Fo.Ste2 [4]
  Fold change yEGFP: 236
  Hillslope: 2.574
  logEC50: -7.534
Fo.Ste2 [4]; 0.5 μM
  Sup.Fig.3B Fo.Ste2 biosensor response, group mean: 1195000
Fg.Ste2 [5]
  Enrichment after mating, reads per million minus library before coculture: > 340,000 RPM
Sc Ste2
  Diploid frequency (%): 0.0%
Ca.Ste2
  Diploid frequency (%): 0.0%
Nc Ste2 GPCR
  Diploid frequency (%): 0.0%
Fo.Ste2 [6]
  barcode qPCR of diploids, Fo.Ste2 x pheromone strain: 0.439
Fo.Ste2 [6]; pH=6
  Sup.Fig.7B - Fo, group mean: 1.65
Fo.Ste2 [6]; pH=7
  Sup.Fig.7B - Fo, group mean: 0.8933
Fo.Ste2 [6]; ph=6
  qPCR, Fo + Fo: 0.386 and 0.413 and 0.467
Fo.Ste2 [6]; ph=7
  qPCR, Fo + Fo: 0.660 and 0.439 and 0.352
Fg.Ste2 [7]; SC-AS/Urea
  barcode qPCR of diploids, Fg.Ste2 x pheromone strain: 0.002 and 0.005 and 0.018
Fg.Ste2 [7]; SC
  barcode qPCR of diploids, Fg.Ste2 x pheromone strain: 0.005 (2×) and 0.013
Fg.Ste2 [7]; section A4, (GPCR strain) Fg, mean of Bio1-3
  diploid barcode qPCR signal relative to control (2^-dCt): 0.118
Fg.Ste2 [7]; section A4, column Fg, replicate Bio1
  diploid barcode qPCR signal relative to control (2^-dCt): 0.012
Fg.Ste2 [7]; section A4, column Fg, replicate Bio2
  diploid barcode qPCR signal relative to control (2^-dCt): 0.1
Fg.Ste2 [7]; section A4, column Fg, replicate Bio3
  diploid barcode qPCR signal relative to control (2^-dCt): 0.242
Fg.Ste2 [7]; section Cm, (GPCR strain) Fg, mean of Bio1-3
  diploid barcode qPCR signal relative to control (2^-dCt): 0.038
Fg.Ste2 [7]; section Cm, column Fg, replicate Bio1
  diploid barcode qPCR signal relative to control (2^-dCt): 0.014
Fg.Ste2 [7]; section Cm, column Fg, replicate Bio2
  diploid barcode qPCR signal relative to control (2^-dCt): 0.066
Fg.Ste2 [7]; section Cm, column Fg, replicate Bio3
  diploid barcode qPCR signal relative to control (2^-dCt): 0.033
Fg.Ste2 [7]; section SC, (GPCR strain) Fg, mean of Bio1-3
  diploid barcode qPCR signal relative to control (2^-dCt): 0.0075
Fg.Ste2 [7]; section SC, column Fg, replicate Bio1
  diploid barcode qPCR signal relative to control (2^-dCt): 0.005
Fg.Ste2 [7]; section SC, column Fg, replicate Bio2
  diploid barcode qPCR signal relative to control (2^-dCt): 0.005
Fg.Ste2 [7]; section SC, column Fg, replicate Bio3
  diploid barcode qPCR signal relative to control (2^-dCt): 0.013
Fg.Ste2 [7]; section Scramble, (GPCR strain) Fg, mean of Bio1-3
  diploid barcode qPCR signal relative to control (2^-dCt): 0.0276
Fg.Ste2 [7]; section Scramble, column Fg, replicate Bio1
  diploid barcode qPCR signal relative to control (2^-dCt): 0.025
Fg.Ste2 [7]; section Scramble, column Fg, replicate Bio2
  diploid barcode qPCR signal relative to control (2^-dCt): 0.022
Fg.Ste2 [7]; section Scramble, column Fg, replicate Bio3
  diploid barcode qPCR signal relative to control (2^-dCt): 0.036
Fg.Ste2 [8]; Fg.Ste2 biosensor CPK366, 10 μM synthetic alpha pheromone, normalized to yEGFP background (receptor without pheromone), four biological replicates, Fig. 1E
  Fold change yEGFP: 187
Fg.Ste2 [8]; chemically synthesized pheromone
  Activation of Fg.Ste2 biosensor, in words: higher EC50 values
